Counter-ions that a name gives are not always drawn. Like-named read-outs stand apart in the source and are kept apart here.
Experiments:
[1] = system: human T24 bladder carcinoma cells; test: Inhibition of growth of human T24 bladder carcinoma cells (methylene blue staining, 5 days); type: cell-based; conditions: 120 h, Eagle's minimal essential medium, 5 days incubation
Method: The carcinoma cells (1000-1500) are transferred to 96-well microlitre plates and are incubated overnight under the said conditions. The test compound is added in serial dilutions on day 1. The plates are incubated under the said conditions for 5 days. During that period, control cultures undergo at least 4 cell divisions. After incubation, the cells are fixed with 3.3% (weight/volume=w/v) aqueous glutaraldehyde solution, washed with water and stained with 0.05% (w/v) aqueous methylene blue solution. After washing, the dye is eluted with 3% (w/v) aqueous hydrochloric acid. The optical density (OD) per well, which is directly proportional to the number of cells, is then measured by means of a photometer (Titertek multiskan) at 665 nm. The IC50 values are calculated by means of a computer system using the formula [formula] The IC50 value is defined as the concentration of active ingredient at which the number of cells per well at the end of the incubation period is only 50% of the number of cells in the control cultures. Inhibition of growth of human T24 bladder carcinoma cells: Using the method for inhibition of growth of human T24 bladder carcinoma cells om Eagle's minimal essential medium (see above), the following test results are obtained (given as IC50 =concentration of the active ingredient at which the number of cells per well at the end of the incubation period is only 50% of the number of cells in the control cultures): […]

[2] = system: mouse ascites L1210 leukaemia cells; test: Levels of putrescine, spermidine and spermine (polyamine pools) in mouse ascites L1210 leukemia cells (method of Porter et al., HPLC); type: cell-based; conditions: 48 h incubation; for activity at 10 µM: test compound 10 μM; for activity at 5 µM: test compound 5 μM
Method: Mouse ascites L1210 leukaemia cells are cultured (at 37° C.) in RPMI-1640 medium (which contains, per litre, 100 mg of Ca(NO3)2,400 mg of KCl, 100 mg of MgSO4.7H2 O, 6000 mg of NaCl, 2000 mg of NaHCO3, 801 mg of Na2 HPO4, 242 mg of L-Arg.HCl, 50 mg of L-Ash, 20 mg of L-Asp, 50 mg of L-Cys, 300 mg of L-Gln, 20 mg of L-Glu, 10 mg of Gly, 18.2 mg of L-His.HCl.H2 O, 20 mg of L-hydroxyproline, 50 mg of L-Leu, 40 mg of L-Lys.HCl, 15 mg of L-Met, 15 mg of L-Phe, 20 mg of L-Pro, 30 mg of L-Ser, 20 mg of L-Thr, 5 mg of L-Trp, 20 mg of L-Tyr, 20 mg of L-Vat, 1 mg of […], 0.2 mg of biotin, 3 mg of choline chloride, 1 mg of folic acid, 35 mg of i-inositol, 1 mg of nicotinamide, 0.25 mg of pantothenoic acid calcium salt, 1 mg of pyridoxine.HCl, 0.2 mg of riboflavin, 1 mg of thiamine. HCl, 0.005 mg of vitamin B12, 2000 mg of glucose, 1 mg of glutathione, and 5 mg of phenol red), which also contains 2 % 4-(2-hydroxyethyl)-1-piperazineethanesulfonic acid/3-(N-morpholino)propanesulfonic acid, 1 mM aminoguanidine and 10% NuSerum (Collaborative Research Inc., Lexington, Mass.). The cells are cultured under a humid 5% carbon dioxide atmosphere at 37° C. either in glass culture tubes (2 ml) or in 25 or 75 cm^2 tissue culture bottles in a total volume of 15 or 50 ml, respectively. The cultures are treated with the compounds of formula I or with 0.1 mM spermidine (controls: without corresponding compounds) during the logarithmic growth phase (0.5 to 1×10^5 cells/ml). The number of cells is measured by electronic particle counting (Model ZF Coulter Counter, Coulter Electronics, Hialeah, Fla.) and confirmed from time to time by haemocytometer measurements. The viability of the cells is measured by trypan blue exclusion measurement (0.5% in unbuffered 0.9% sodium chloride solution ).
For polyamine determination, the cell samples are washed twice in cold PBS (="Phosphate Buffered Saline"--contains per litre 8000 mg of NaCl, 200 mg of KCl, 1150 mg of Na2 HPO4.2H2 O, 200 mg of KH2 PO4, 100 mg of MgCl2.H2 O, 200 mg of MgSO4.H2 O and CaCl2; pH 7.2), and an aliquot of 10^7 cells is removed for polyamine determination. The cells are formed into a pellet, and the PBS supernatant is removed carefully using a cotton wool swab. The pellet containing the cells is then maintained together with 0.5 ml of 0.6M perchloric acid for 30 minutes at 4° C. and is then centrifuged for 3 minutes at 12,000 g using a microcentrifuge. The supernatant is frozen at -20° C. until the HPLC analysis. For that purpose, the polyamines in a 50 μl sample of the perchloric acid extract are separated over an HPLC system using a glass "Microbore Column" having a diameter of 2.8 mm, which is packed to a height of 2 cm with TLC-4A-cationexchange resin (Durrum Chemical Corp., Palo Alto, Calif.). The column temperature is maintained at 65° C. by means of a water bath with circulating water. The column is eluted at a flow rate of 16 ml/h with an initial column pressure of 34.45 bar, which decreases as the ionic strength of the elution buffer increases. Buffer 1 (which contains 0.2M boric acid, 0.5M NaCl, 0.03% Brij 35 (polyoxyethylene monolauryl ether, the number of ethyleneoxy radicals is approximately 23; Pierce Chemical Co., Rockford, Ill.) and 0.0001% octanoic acid, pH adjusted to 6.0 with saturated KOH) is flushed through the column for 4 minutes. Buffer 2 (which contains 0.2M boric acid, 2.15M NaCl, 0.03% Brij 35 and 0.0001% octanoic acid, pH adjusted as above) is pumped through for 6 minutes. Buffer 3 (which contains 0.2M boric acid, 2.9M NaCl and 0.0001% octanoic acid (pH adjusted as above)) is likewise applied for 6 minutes. The column is re-equilibrated for 10 minutes with buffer 1, before the next sample is introduced. The column eluate is derivatised with 0.05% o-phthalaldehyde (Durrum Chemical Corp.) in 0.4M borate buffer (pH 10.4)/1 mM 2-mercaptoethanol/0.09% Brij 35. The flow rate for o-phthalaldehyde is 8 ml/h. […]

[3] = read-out: level of putrescine (PU), % of the respective control
[4] = read-out: level of spermidine (SPD), % of the respective control
[5] = read-out: level of spermine (SPM), % of the respective control

IC50 [1] | SMILES | activity at 10 µM [2, 3] | activity at 10 µM [2, 4] | activity at 10 µM [2, 5] | activity at 5 µM [2, 3] | activity at 5 µM [2, 4] | activity at 5 µM [2, 5]
8200 nM | CCCCNCCCNC/C=C/CNCCCNCCCC [Example 3, (E)-1,14-Di-butyl-1,5,10,14-tetraazatetradec-7-ene tetrahydrochloride] | – | – | – | – | – | –
600 nM | C=CCNCCCNC/C=C/CNCCCNCC=C [Example 2, (E)-1,14-Di-allyl-1,5,10,14-tetraazatetradec-7-ene tetrahydrochloride] | 16% | 3.1% | 36% | – | – | –
1100 nM | CCCNCCCNC/C=C/CNCCCNCC [Example 9, (E)-1-Ethyl-14-propyl-1,5,10,14-tetraazatetradec-7-ene tetrahydrochloride] | 6.9% | 2% | 19% | – | – | –
550 nM | CCCCNCCCNC/C=C/CNCCCNCC [Example 8, (E)-1-Butyl-14-ethyl-1,5,10,14-tetraazatetradec-7-ene tetrahydrochloride] | 4.8% | 0.2% | 4% | – | – | –
3000 nM | C=CCNCCCNC/C=C/CNCCCNCC [Example 6, (E)-1-Ally-14-ethyl-1,5,10,14-tetraazatetradec-7-ene tetrahydrochloride] | 4.1% | 2.1% | 12% | – | – | –
– | CCNCCCNC/C=C/CNCCCNCC [Example 5, (E)-1,14-Di-ethyl-1,5,10,14-tetraazatetradec-7-ene tetrahydrochloride] | – | – | – | 4.1% | 2.1% | 30%
2140 nM | C=CCNCCCNC/C=C/CNCCCNCCC [Example 13, (E)-1-Allyl-14-propyl-1,5,10,14-tetraazatetradec-7-ene tetrahydrochloride] | 0% | 1.3% | 25% | – | – | –
640 nM | CCCNCCCNC/C=C/CNCCCNCCC [Example 1, (E)-1,14Di-propyl-1,5,10,14-tetraazatetradec-7-ene tetrahydrochloride] | 9.4% | 12% | 67% | – | – | –
920 nM | C(=C\CNCCCNCC1CC1)/CNCCCNCC1CC1 [Example 16, (E)-1,14-Di-cyclopropylmethyl-1,5,10,14-tetraazatetradec-7-ene tetrahydrochloride] | 12% | 24% | 62% | – | – | –

From patent US5627215A, “Unsaturate amino compounds for use as anticancer and antiprotozoic agent” (Ciba-Geigy Corporation, priority 1993, dated 1997)
